The target of one assay is RBP4 (Homo sapiens (Human), UniProt P02753). In words: RBP4 SPA binding assay (displacement of 3H-retinol). In general terms: In a radioligand displacement assay an active substance lowers the binding of a labelled ligand.
The target in the next assay is TTR (Homo sapiens (Human), UniProt P02766). Put plainly: biochemical. The assay is classed as binding. The conditions noted are these: FITC-coupled TTR FP probe; read-out: TTR FP IC50. The protocol:
Compound binding to TTR was assessed in the fluorescence polarization assay. […] Each well contained 200 nM TTR and 100 nM FITC-diclofenac in the FP buffer (10 mM Tris-HCl pH 7.5, 150 mM NaCl, 0.01% CHAPS, 0.01% Prionex) along with test compounds. Nonspecific binding was determined in the presence of 500 μM unlabeled diclofenac (Sigma-Aldrich). Reactions with test compounds were incubated overnight at 4° C. and FP was measured on SpectramaxM5e plate reader (Molecular Devices).

In a further assay the target is RBP4-TTR interaction (Homo sapiens (Human), UniProt P02753). In words: HTRF RBP4-TTR interaction assay. Format: biochemical. The protocol:
HTRF Cryptate labeling kit from CisBio (Cisbio, cat #62EUSPEA, Bedfored, MA) was used to label TTR with Eu^3+ Cryptate. The assay was performed in a final assay volume of 16 μl in the buffer that contained 10 mM Tris-HCl pH 7.5, 1 mM DTT, 0.05% NP-40, 0.05% Prionex, 6% glycerol, and 400 mM KF. […] All of the reactions were performed under dim red light in the dark. The plates were read in the SpectraMax M5e Multimode Plate Reader (Molecular Devices, Sunnyvale, CA) after the overnight incubation at 4° C. […] The HTRF signal was expressed as the ratio of fluorescence intensity: Flu668/Flu620×10,000.

The mark [1] stands for this setting: 1 μM retinol, read-out: RBP4-TTR HTRF IC50.
The mark [2] stands for this setting: fixed 10 nM 3H-retinol, read-out: RBP4 SPA IC50.

A word on the IC50: it is the concentration at which inhibition is half-maximal.

Like-named read-outs stand apart in the source and are kept apart here.

For the molecule `Cc1cc(C(=O)O)nc(N2CCC(Oc3ccccc3C(F)(F)F)C2)n1` (racemic) [(±)-27, (±)-6-Methyl-2-(3-(2-(trifluoromethyl)phenoxy)pyrrolidin-1-yl)pyrimidine-4-carboxylic Acid], the IC50 at RBP4 is greater than 3000 nM; on TTR, 8800 nM.
As to `Cc1cc(C(=O)O)nc(N2CCCC(COc3ccccc3C(F)(F)F)C2)n1` (racemic) [(±)-62, (±)-6-Methyl-2-(3-((2-(trifluoromethyl)phenoxy)methyl)piperidin-1-yl)pyrimidine-4-carboxylic Acid], the IC50 is 15000 nM against RBP4-TTR interaction, 480 nM on RBP4 and 1100 nM on TTR.
Turning to `Cc1cc(C(=O)O)nc(N2CCC3(CCN(c4ccccc4C(F)(F)F)C3)C2)n1` (racemic) [(±)-67, (±)-6-Methyl-2-(7-(2-(trifluoromethyl)phenyl)-2,7-diazaspiro[4.4]nonan-2-yl)pyrimidine-4-carboxylic Acid], the values for the IC50 at RBP4 and at TTR were 260 nM and 1600 nM, respectively.
For `Cc1cc(C(=O)O)nc(N2CCC(CNc3ccccc3C(F)(F)F)C2)n1` (racemic) [(±)-76, (±)-6-Methyl-2-(3-(((2-(trifluoromethyl)phenyl)amino)methyl)pyrrolidin-1-yl)pyrimidine-4-carboxylic Acid], the IC50 was 7500 nM at RBP4-TTR interaction (setting [1]), 900 nM at RBP4 (setting [2]) and 3500 nM at TTR.
Take `Cc1cc(C(=O)O)nc(N2CCC(OCc3ccccc3C(F)(F)F)C2)n1` (racemic) [(±)-80, (±)-6-Methyl-2-(3-((2-(trifluoromethyl)benzyl)oxy)pyrrolidin-1-yl)pyrimidine-4-carboxylic Acid]: the IC50 is greater than 3000 nM on RBP4 and 13000 nM on TTR.
On to `Cc1cc(C(=O)O)nc(N2CCC(COc3ccccc3C(F)(F)F)C2)c1` (racemic) [(±)-95, (±)-4-Methyl-6-(3-((2-(trifluoromethyl)phenoxy)methyl)pyrrolidin-1-yl)picolinic Acid], for which the IC50 on RBP4-TTR interaction (setting [1]) worked out at 540 nM; at RBP4 (setting [2]), 130 nM; on TTR, 7400 nM.
As for `O=C(O)c1ccc(F)c(N2CCC(COc3ccccc3C(F)(F)F)C2)c1` (racemic) [(±)-98, (±)-4-Fluoro-3-(3-((2-(trifluoromethyl)phenoxy)methyl)pyrrolidin-1-yl)benzoic Acid], the IC50 at RBP4 stood at 2350 nM; at TTR it was 1880 nM.
For the molecule `Cc1cc(C(=O)NS(C)(=O)=O)nc(N2CCC(COc3ccccc3C(F)(F)F)C2)n1` (racemic) [(±)-99, (±)-6-Methyl-N-(methylsulfonyl)-2-(3-((2-(trifluoromethyl)phenoxy)methyl)pyrrolidin-1-yl)pyrimidine-4-carboxamide], the IC50 at RBP4-TTR interaction (setting [1]) amounted to 700 nM; at RBP4 (setting [2]), 81 nM; on TTR, 4200 nM.
The like results for `CNC(=O)c1cc(C)nc(N2CCC(COc3ccccc3C(F)(F)F)C2)n1` (racemic) [(±)-101, (±)-N,6-dimethyl-2-(3-((2-(trifluoromethyl)phenoxy)methyl)pyrrolidin-1-yl)pyrimidine-4-carboxamide] were, in that order, greater than 30000 nM, 89 nM and greater than 30000 nM.
Regarding `Cc1cc(-c2nn[nH]n2)nc(N2CCC(COc3ccccc3C(F)(F)F)C2)n1` (racemic) [(±)-103, (±)-4-Methyl-6-(2H-tetrazol-5-yl)-2-(3-((2-(trifluoromethyl)phenoxy)methyl)pyrrolidin-1-yl)pyrimidine], the values for the IC50 on RBP4-TTR interaction, at RBP4 and on TTR were 1600 nM, 86 nM and 1260 nM, respectively.
As for `Cc1cc(C(=O)O)nc(N2CCC(CSc3ccccc3C(F)(F)F)C2)n1` (racemic) [Compound (±)-71, (±)-6-Methyl-2-(3-(((2-(trifluoromethyl)phenyl)thio)methyl)pyrrolidin-1-yl)pyrimidine-4-carboxylic Acid], the results for the IC50 at RBP4-TTR interaction (setting [1]), on RBP4 (setting [2]) and on TTR were 1300 nM, 230 nM and 10500 nM, respectively.
Regarding `Cc1cc(C(=O)O)nc(N2CCC(COc3ccccc3C(C)(C)C)C2)n1` (racemic) [Compound (±)-83, (±)-2-(3-((2-(Tert-butyl)phenoxy)methyl)pyrrolidin-1-yl)-6-methylpyrimidine-4-carboxylic Acid], the IC50 on RBP4-TTR interaction (setting [1]) was 450 nM; on RBP4 (setting [2]), 130 nM; at TTR it was greater than 30000 nM.
The like results for `Cc1cc(C(=O)O)nc(N2CCC(COc3ccccc3C3CCCC3)C2)n1` (racemic) [Compound (±)-84, (±)-2-(3-((2-Cyclopentylphenoxy)methyl)pyrrolidin-1-yl)-6-methylpyrimidine-4-carboxylic Acid] were, in that order, 540 nM, 160 nM and greater than 30000 nM.
Regarding `Cc1cc(C(=O)O)nc(N2CCC(COc3ccccc3C3CCCCC3)C2)n1` (racemic) [Compound (±)-85, (±)-2-(3-((2-Cyclohexylphenoxy)methyl)pyrrolidin-1-yl)-6-methylpyrimidine-4-carboxylic Acid], the IC50 was 210 nM on RBP4 and greater than 30000 nM on TTR.
On to `Cc1cc(C(=O)O)nc(N2CCC(COc3cccc(Cl)c3C(F)(F)F)C2)n1` (racemic) [Compound (±)-86, (k)-2-(3-((3-Chloro-2-(trifluoromethyl)phenoxy)methyl)pyrrolidin-1-yl)-6-methylpyrimidine-4-carboxylic Acid], for which the values for the IC50 on RBP4 (setting [2]) and at TTR were 180 nM and 3900 nM, respectively.
The like results for `COc1ccc(C(F)(F)F)c(OCC2CCN(c3nc(C)cc(C(=O)O)n3)C2)c1` (racemic) [Compound (±)-90, (k)-2-(3-((5-Methoxy-2-(trifluoromethyl)phenoxy)methyl)pyrrolidin-1-yl)-6-methylpyrimidine-4-carboxylic Acid] were, in that order, greater than 3000 nM and greater than 30000 nM.
For `Cc1cc(C(=O)O)nc(N2CCC(COc3cc(C(F)(F)F)cc(C(F)(F)F)c3)C2)n1` (racemic) [Compound (±)-91, (k)-2-(3-((3,5-Bis(trifluoromethyl)phenoxy)methyl)pyrrolidin-1-yl)-6-methylpyrimidine-4-carboxylic Acid], the results for the IC50 on RBP4 (setting [2]) and at TTR were 1600 nM and greater than 30000 nM, respectively.
In the case of `Cc1cc(C(=O)O)nc(N2CCC(COc3cccnc3C(F)(F)F)C2)n1` (racemic) [Compound (±)-93, (±)-6-Methyl-2-(3-(((2-(trifluoromethyl)pyridin-3-yl)oxy)methyl)pyrrolidin-1-yl)pyrimidine-4-carboxylic Acid], the IC50 at RBP4 is 660 nM; on TTR, greater than 30000 nM.
The like results for `O=C(O)c1ccnc(N2CCC(COc3ccccc3C(F)(F)F)C2)n1` (racemic) [Compound (±)-94, (±)-2-(3-((2-(Trifluoromethyl)phenoxy)methyl)pyrrolidin-1-yl)pyrimidine-4-carboxylic Acid] were, in that order, 1670 nM and 11000 nM.
The like results for `O=C(O)c1cccc(N2CCC(COc3ccccc3C(F)(F)F)C2)n1` (racemic) [Compound (±)-96, (±)-6-(3-((2-(Trifluoromethyl)phenoxy)methyl)pyrrolidin-1-yl)picolinic acid] were, in that order, greater than 3000 nM and 25000 nM.
Take `Cc1cc(C(=O)O)nc(N2CC(Oc3ccccc3C(F)(F)F)C2)n1` [Compound 32, 6-Methyl-2-(3-(2-(trifluoromethyl)phenoxy)azetidin-1-yl)pyrimidine-4-carboxylic Acid]: the IC50 on TTR was found to be 13500 nM.

These data come from patent publication US20230348415A1, “BISPECIFIC ANTAGONISTS OF RETINOL-BINDING PROTEIN 4 THAT STABILIZE TRANSTHYRETIN TETRAMERS, THEIR PREPARATION, AND USE IN THE TREATMENT OF COMMON AGE-RELATED COMORBIDITIES” (The Trustees of Columbia University in the City of New York, priority 2020, published 2023).
